# Experimental data from patent publication US20260262641A1 (priority 2023, published 2026).
# Legend:
# [1] = tested on: couch mite (Aceria cynodoniensis); test: Field trial in Santa Ana couch turfgrass, control of couch mite (Example 3); assay type: in vivo; settings: for Biomass and vigor (0-10), 42 DAA2 / Biomass and vigor (0-10), Pre-spray: 0 to 10 rating scale; for Biomass and vigor (0-10), 42 DAA2 / NDVI, 42 DAA2 / % Incidence mite damage, 42 DAA2: product rate mL/ha: Prophesy 500, Thumper 2000 (+ BS 1000 0.25% v/v); for Biomass and vigor (0-10), 42 DAA2 / NDVI, 42 DAA2: Fenpyroximate 50 SC 4000; for NDVI, 42 DAA2 / NDVI, Pre-spray: Greenseeker; for % Incidence mite damage, 42 DAA2: 42 days after second application, Fenpyroximate 50 SC 4000 (200 g ai/ha); for Biomass and vigor (0-10), Pre-spray / NDVI, Pre-spray / % Incidence mite damage, Pre-spray: Pre-spray (baseline); for % Incidence mite damage, Pre-spray: witches' broom
# Experimental: A field trial was conducted in Santa Ana couch turfgrass, to evaluate fenpyroximate for control of couch mite (Aceria cynodoniensis). The trial was located at Terrey Hills Golf and Country Club, New South Wales (−33.668, 151.217). […] All treatments were applied using a hand boom fitted with XR11004 nozzles and in a spray volume of 430 L/ha.
# The incidence of couch mite damage, to the terminal growth point (known as witches' broom) was assessed 42 days after the second application. Turf biomass and vigor were assessed at the same timing on a 0 to 10 rating scale, along with NDVI using a Greenseeker.
# (§1) All data was statistically analyzed using analysis of variance and Fisher's protected least significant different test (Fishers LSD). The level of significance for all tests was P<0.05.
# [2] = tested on: redlegged earth mite (H. destructor; RLEM); test: whole plant or invertebrate; settings: for LC50: read-out: LC50 (95% CI)
# Experimental: On the 14th of May 2022, H. destructor were collected from capeweed (Arctotheca calendula) in South Morang, Victoria (−37.625, 145.110), a site with no known history of insecticide application. Mites were collected via suction using a Stihl SH55 blower vacuum, placed in plastic containers with paper towel and vegetation, and transported back to the laboratory, where they were stored at 4° C. until testing.
# Serial dilutions were prepared for each insecticide (Table 1), with the addition of a non-ionic surfactant (Tween 20) at 0.01% to aid the spread of the insecticide and ensure even coating. […] Nine concentrations of pyridaben ranging from the proposed field rate of 1480 mL diluted in 100 L of water (1998 mg a.i./L) to 1×10^−5 were serially diluted and tested along with a water control. Eight concentrations of omethoate, ranging from 10 times the field rate of 100 mL diluted in 100 L of water (290 mg a.i./L) to 1×10^−5, were tested along with a water control. Seven concentrations of bifenthrin, ranging from 10 times the field rate of 40 mL diluted in 100 L of water (100 mg a.i./L) to 1×10^−5, were tested along with a water control. For each insecticide concentration tested, approximately 10 mL of solution was poured into a 15 mL plastic vial and swirled to ensure a complete coating, with excess liquid removed. Six vials were coated per concentration and were left to dry overnight. Control vials were treated in the same way, except water (with the addition of 0.01% Tween) was used.
# Approximately eight individual H. destructor were then placed into each vial along with 2-3 leaves of common vetch (Vicia sativa), which provided food and humidity. Vials were then sealed with a screw lid and placed in a controlled temperature cabinet at 18° C. After 24-hours exposure, mites were scored as alive (moving freely), incapacitated (inhibited movement), or dead (no movement over a 5 second period).
# Dose-response curves were generated by plotting percentage mortality against log concentration. […] Logistic regression is well suited for the analysis of binary response data (e.g., dead/alive). All analyses were conducted using R version 3.3.1 (R Development Core Team 2022).
# [3] = tested on: insecticide-resistant population of redlegged earth mite (H. destructor; RLEM); test: whole plant or invertebrate; settings: for LC50: read-out: LC50 (95% CI); for difference between insecticide-susceptible and resistant populations in response (in words): P < 0.05 level
# Experimental: (§2) The insecticide-susceptible H. destructor population tested in this bioassay was collected from burr medic (Medicago polymorpha) and barley grass (Hordeum leporinum) in Moulamein, NSW (−35.102, 144.026), a site with no known history of insecticide application. […] Mites were collected via suction using a Stihl SH55 blower vacuum, placed in plastic containers with paper towel and vegetation, and transported back to the laboratory, where they were stored at 4° C. until testing.
# (§3) Serial dilutions were prepared for each insecticide (Table 9), with the addition of a non-ionic surfactant (Tween 20) at 0.01% to aid the spread of the insecticide and ensure even coating. […] Nine concentrations of bifenthrin were tested, ranging from 1×10^−5 to 10 times the field rate of 40 mL diluted in 100 L of water (100 mg a.i./L). Seven concentrations of omethoate were tested, ranging from 1×10^−5 to 10 times the field rate of 100 mL in 100 L of water (290 mg a.i./L).
# (§4) Six vials were coated per concentration and were left to dry overnight. Control vials were treated in the same way, except water (with the addition of 0.01% Tween) was used. The next day, eight individual H. destructor were then placed into each vial along with 2-3 leaves of common vetch (Vicia sativa), which provided food and humidity. Vials were then sealed with a screw lid and placed in a controlled temperature cabinet at 18° C. After 24-hours exposure, mites were scored as alive (moving freely), incapacitated (inhibited movement), or dead (no movement over a 5 second period).
# (§5) Dose-response curves were generated by plotting percentage mortality against log concentration. A series of logistic models were used to quantify the sensitivity of H. destructor to each chemical and to test whether any differences in sensitivity were present between the two populations. Logistic regression is well suited for the analysis of binary response data (e.g., dead/alive). Each model included chemical concentration and H. destructor population as fixed-effect predictors, which allowed testing for whether populations had average differences in mortality (i.e., model intercept) via F tests. It was then determined if populations had differences in mortality that were dependent on chemical concentration (i.e., differences in regression slopes) by comparing the inclusion of a population×concentration predictor (i.e., allowing slopes to vary between populations). […] The resulting LC50 values were used to quantify the level of insecticide resistance (resistance ratios) relative to the known insecticide-susceptible population. All analyses were conducted using R version 4.3.1 (R Development Core Team 2023).
# [4] = tested on: insecticide-susceptible population of redlegged earth mite (H. destructor; RLEM); test: whole plant or invertebrate; settings: Halotydeus destructor, 24 h; for LC50: read-out: LC50 (95% CI)
# Experimental: as §2, §3, §4, §5
# [5] = tested on: redlegged earth mite (H. destructor; RLEM); test: Field trial in canola, pre- or post-emergent control of RLEM (Example 5); assay type: in vivo, Halotydeus destructor; settings: application timing B (early post-emergent, 1 to 2 leaf canola)
# Experimental: A field trial was conducted in canola cv. Garrison, to evaluate fenpyroximate for control of redlegged earth mite (H. destructor; RLEM) as a pre- or post-emergent application. The trial was located at Beverley, Western Australia (−32.2248085, 117.0268493). The canola was sown on 13th June 2023. […] All treatments were applied using a hand boom fitted with flat fan nozzles in a spray volume of 100 L/ha.
# The density of RLEM was assessed 33 days after the second application timing by counting the number of mites per plant.
# as §1
# [6] = Halotydeus destructor, 24 h, read-out: % RLEM mortality
# [7] = Halotydeus destructor, 24 h, read-out: % RLEM mortality, Resistant
# [8] = read-out: % RLEM mortality, Susceptible
compound,measurement,setting,value
Abamectin [Thumper],"Biomass and vigor (0-10), 42 DAA2",[1],4.4
same,"NDVI, 42 DAA2",[1],0.58
same,"% Incidence mite damage, 42 DAA2",[1],57.0%
same,"Biomass and vigor (0-10), Pre-spray",[1],3.9 a
same,"NDVI, Pre-spray",[1],0.52 a
same,"% Incidence mite damage, Pre-spray",[1],95.3 a %
"Clc1ccccc1-c1nnc(-c2ccccc2Cl)nn1 [Prophesy, Clofentezine]","Biomass and vigor (0-10), 42 DAA2",[1],4.9
same,"NDVI, 42 DAA2",[1],0.64
same,"% Incidence mite damage, 42 DAA2",[1],52.0%
same,"Biomass and vigor (0-10), Pre-spray",[1],4.0 a
same,"NDVI, Pre-spray",[1],0.53 a
same,"% Incidence mite damage, Pre-spray",[1],94.0 a %
same,turf biomass and vigor and NDVI (in words),"[1]; versus untreated, P<0.05",also improved
CNC(=O)CSP(=O)(OC)OC [Omethoate],mortality at 0.003 µg/mL,[2]; [6],0%
same,mortality at 0.03 µg/mL,[2]; [6],2.8%
same,mortality at 0.3 µg/mL,[2]; [6],11.7%
same,mortality at 0.9 µg/mL,[2]; [6],55.3%
same,mortality at 2.9 µg/mL,[2]; [6],98.1%
same,mortality at 29 µg/mL,[2]; [6],100%
same,mortality at 290 µg/mL,[2]; [6],100%
same,mortality at 2900 µg/mL,[2]; [6],100%
same,LC50,"[2]; Halotydeus destructor, 24 h",0.681 µg/mL
same,mortality at 0.0029 µg/mL,[3]; [7],16.1%
same,mortality at 0.029 µg/mL,[3]; [7],18.9%
same,mortality at 0.29 µg/mL,[3]; [7],17.2%
same,mortality at 2.9 µg/mL,[3]; [7],47.5%
same,mortality at 29 µg/mL,[3]; [7],100%
same,mortality at 290 µg/mL,[3]; [7],100%
same,mortality at 2900 µg/mL,[3]; [7],100%
same,LC50,"[3]; Halotydeus destructor, 24 h",0.935 µg/mL
same,difference between insecticide-susceptible and resistant populations in response (in words),[3],no statistically significant difference
same,mortality at 0.0029 µg/mL,[4]; [8],7.6%
same,mortality at 0.029 µg/mL,[4]; [8],10.1%
same,mortality at 0.29 µg/mL,[4]; [8],32.1%
same,mortality at 2.9 µg/mL,[4]; [8],95.8%
same,mortality at 29 µg/mL,[4]; [8],100%
same,mortality at 290 µg/mL,[4]; [8],100%
same,mortality at 2900 µg/mL,[4]; [8],100%
same,LC50,[4],0.348 µg/mL
same,% Control (33 DAA2),[5]; product rate 100 mL/ha,74%
CC(C)c1cc(Oc2ccccc2)cc(C(C)C)c1NC(=S)NC(C)(C)C [Diafenthiuron],mortality at 0.03 µg/mL,[3]; [7],3.9%
same,mortality at 0.3 µg/mL,[3]; [7],10.6%
same,mortality at 3 µg/mL,[3]; [7],13.2%
same,mortality at 30 µg/mL,[3]; [7],15.7%
same,mortality at 300 µg/mL,[3]; [7],39.5%
same,mortality at 3000 µg/mL,[3]; [7],75.5%
same,mortality at 30000 µg/mL,[3]; [7],100%
same,mortality at 90000 µg/mL,[3]; [7],100%
same,difference between insecticide-susceptible and resistant populations in response (in words),[3],significant population differences
same,mortality at 0.03 µg/mL,[4]; [8],13.9%
same,mortality at 0.3 µg/mL,[4]; [8],15.6%
same,mortality at 3 µg/mL,[4]; [8],13%
same,mortality at 30 µg/mL,[4]; [8],21.5%
same,mortality at 300 µg/mL,[4]; [8],64.1%
same,mortality at 3000 µg/mL,[4]; [8],100%
same,mortality at 30000 µg/mL,[4]; [8],100%
same,mortality at 90000 µg/mL,[4]; [8],100%
same,% Control (33 DAA2),[5]; product rate 400 mL/ha,54%
Cc1c(COC(=O)[C@@H]2[C@H](/C=C(\Cl)C(F)(F)F)C2(C)C)cccc1-c1ccccc1 (racemic) [Bifenthrin],mortality at 0.001 µg/mL,[2]; [6],0%
same,mortality at 0.01 µg/mL,[2]; [6],0%
same,mortality at 0.1 µg/mL,[2]; [6],64.9%
same,mortality at 0.3 µg/mL,[2]; [6],98.7%
same,mortality at 1 µg/mL,[2]; [6],100%
same,mortality at 10 µg/mL,[2]; [6],100%
same,mortality at 100 µg/mL,[2]; [6],100%
same,LC50,"[2]; Halotydeus destructor, 24 h",0.085 µg/mL
same,Resistance ratio,[3],265.09
same,mortality at 0.001 µg/mL,[3]; [7],4.4%
same,mortality at 0.01 µg/mL,[3]; [7],9.3%
same,mortality at 0.03 µg/mL,[3]; [7],5.8%
same,mortality at 0.1 µg/mL,[3]; [7],22.3%
same,mortality at 0.3 µg/mL,[3]; [7],44.6%
same,mortality at 1 µg/mL,[3]; [7],48.9%
same,mortality at 10 µg/mL,[3]; [7],70.9%
same,mortality at 100 µg/mL,[3]; [7],59%
same,mortality at 1000 µg/mL,[3]; [7],53.5%
same,LC50,"[3]; Halotydeus destructor, 24 h",14.1 µg/mL
same,difference between insecticide-susceptible and resistant populations in response (in words),[3],significant difference
same,mortality at 0.001 µg/mL,[4]; [8],7%
same,mortality at 0.01 µg/mL,[4]; [8],4.7%
same,mortality at 0.03 µg/mL,[4]; [8],17.4%
same,mortality at 0.1 µg/mL,[4]; [8],74.3%
same,mortality at 0.3 µg/mL,[4]; [8],98.1%
same,mortality at 1 µg/mL,[4]; [8],100%
same,mortality at 10 µg/mL,[4]; [8],100%
same,mortality at 100 µg/mL,[4]; [8],100%
same,mortality at 1000 µg/mL,[4]; [8],100%
same,LC50,[4],0.053 µg/mL
CC(C)(C)c1ccc(CSc2cnn(C(C)(C)C)c(=O)c2Cl)cc1 [Pyridaben],mortality even at the highest rates,"[2]; 24 hours exposure, highest rates tested",less than 50%
same,mortality at 0.02 µg/mL,[2]; [6],0%
same,mortality at 0.2 µg/mL,[2]; [6],0%
same,mortality at 2 µg/mL,[2]; [6],0%
same,mortality at 20 µg/mL,[2]; [6],0%
same,mortality at 60 µg/mL,[2]; [6],0%
same,mortality at 200 µg/mL,[2]; [6],9%
same,mortality at 599 µg/mL,[2]; [6],23.4%
same,mortality at 999 µg/mL,[2]; [6],45.5%
same,mortality at 1998 µg/mL,[2]; [6],27.5%
same,efficacy against RLEM (in words),"[2]; laboratory bioassay, 24 hours exposure",not efficacious
same,highest mortality observed,[2]; range of concentrations tested 0.01998-1998 mg a.i./L,45%
